The text below walks through data of US11440880B2, “Thalidomide analogs and methods of use” (The USA, as represented by the Secretary, Department of …, priority 2015, dated 2022).

In series [1] the test system is mpo:GFP zebrafish embryos (neutrophil migration to the wound site). The series can be described thus: mpo:GFP zebrafish fin-clip neutrophil migration (inflammation) assay. The format is in vivo. Details: mpo:GFP inflammation n (survived/tested): concentration or dose not given beside the values. Put shortly: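 Tg(mpo::EGFP) larvae tail-fin clipped (dorsal third removed) at 72 hpf, then immersed in compound or vehicle. Neutrophils migrating to the wound site counted from images 24 h later; at least 50% reduction scored as anti-inflammatory. Viability and morphology also assessed.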

Series [2] has as its system fli1:EGFP zebrafish embryos (intersegmental vessel growth). Nature of the series: fli1:EGFP zebrafish embryo angiogenesis assay. The format is in vivo. In outline: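 fli1:EGFP embryos grown 24 hpf, dechorionated and exposed to compound or vehicle over a range of concentrations for up to 24 h, with CPS49 as positive control. Imaged at 48 hpf for intersegmental vessel formation and growth; survival after 24 h exposure recorded, and values reflect the lowest concentration producing an effect.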

In the next series the test system is WT zebrafish embryos. The series can be described thus: WT zebrafish embryo development / teratogenicity. The class given is in vivo, zebrafish (Danio rerio). The note with it: in words; at concentrations active in fli1:EGFP or mpo:GFP assays. From the text:
To determine the effects of the candidate compounds on embryonic development, two in vivo model systems (developing zebrafish and chicken embryos) were utilized.
Malformations in the development of the zebrafish embryo were noted, including inhibition of eye, otic vesicle and fin development (FIGS. 7A-7F). […] Embryos were screened at concentrations previously determined, in this study, to be anti-angiogenic or anti-inflammatory in the fli1:EGFP and mpo:GFP assays respectively.
(§1) Concentrations used in the WT zebrafish and chicken embryo assays to assess for teratogenesis, were equal to or higher than those utilized in the fil1:EGFP and mpo:GFP zebrafish assays

The next series has as its system chicken embryos. The series can be described thus: Chicken embryo development / teratogenicity. The note with it: in words; applied at HH stage 17-18. The class given is in vivo, white leghorn chicken. On the procedure: Chicken Embryology: Fertilized white leghorn chicken embryos were incubated at 38° C. and staged according to Hamburger and Hamilton (HH) stages of development (1951). Embryos were tested at HH stage 17-18 (day 2.5). Following membrane removal, test compounds or vehicle control solutions were applied globally over the embryo. The eggs were sealed and the development of the embryos was monitored up to HH stage 30 (E9).
Compounds of interest were screened in chicken embryos (FIGS. 7I-7P).
as §1

Entries after “also recorded” stand apart in the source; their conditions may differ.

Turning to `O=C1c2ccccc2C(=S)N1C1CCC(=S)NC1=S` (stereo not shown) [Compound 4], the minimal effective concentration worked out at 10 µg/mL in series [1] (Danio rerio, Neutrophil, lowest concentration producing an effect, compounds not producing an effect shown at the highest evaluated concentration) and 1.5 µg/mL in series [2] (Danio rerio, lowest concentration producing an effect, compounds not producing an effect shown at the highest evaluated concentration). In addition, the “mpo:GFP inflammation n (survived/tested)” value in series [1] (embryos survived/tested at the concentration given) is listed as 19/23. Further, the “fli1:EGFP angiogenesis n (survived/tested)” value in series [2] (embryos alive after 24 hours of exposure) is 4/11. For the same compound, the “concentration at which anti-angiogenic activity was shown” value in series [2] (exposure from 24 hpf, imaged at 48 hpf) amounted to 1.5 µg/mL. Besides, the “effect on development / mortality of zebrafish embryos” value in the series with WT zebrafish embryos was “defects and high mortality rates; also recorded: induced defects (e.g., microophthalmia and fin malformation)”. For the same compound, the “effect on development / mortality of chicken embryos” value in the series with chicken embryos is “defects and high mortality rates”.

In general, minimal effective concentration refers to the lowest level tested that produced the effect sought.
